This note sets out measurements from patent US7074925B1, “N-substituted derivatives of 5-oxyiminobarbituric acid” (priority 1998, dated 2006).

≈ marks a conversion by molar mass, not a printed value.

Data set [1] in a line: Psychostimulating activity, symptom score. Type of data set: in vivo, mice. As to conditions: tested substances perorally 300 mg/kg, one hour after; maximum 30 points, more than 12 significant.
For data set [2], the system named is primary culture of human lymphocytes (IFN-α production). The experiment in a line: Interferon-inducing activity in primary culture of human lymphocytes. Type of data set: cell-based. As for the experimental part:
Interferon synthesis induction caused by the claimed compounds was conducted on a primary culture of human lymphocytes (it is these cells in a human organism that are the main producers of interferons). To obtain lymphocyte culture, fresh blood (within 12 hours after sampling) from healthy donors (not of group II) was used. To separate lymphocytes, heparinized blood obtained from healthy donor was centrifuged in a density gradient of ficoll-verografin of […] in order to extract a fraction of immunocompetent cells. This fraction was selected and diluted with the nutrient medium RPMI-1640, containing 5% of fetal calf serum, 0.3 mg/ml of L-glutamin, 100 un/ml of penicillin, and […] of streptomycin. The concentration of lymphocytes was considered after dying them with methylene blue and calculation of cell number in Goryaev chamber. Initial solutions of the claimed compounds were diluted with the nutrient medium RPMI-1640 so that the final concentrations of the compounds, which were obtained after introduction of lymphocyte suspension, constituted the raw: 100 μg/ml, 10 μg/ml, 1 μg/ml. The final concentration of lymphocytes in the induction mixture was 3×10^6 cell/ml.
In parallels to the test samples the following controls were done: • 1). Control of spontaneous production of interferons (IFN) by lymphocytes. • 2). […] Control of spontaneous production of interferons in presence of DMSO taken in an amount corresponding to the test samples.
Control and test samples were incubated for 24 hours at the temperature of 37° C. After incubation, the samples were centrifuged at 2,000 G to deposit cell elements, and IFN-containing supernatant was separate out of samples; then the supernatant was analyzed for the quantitative content of IFN. Cell deposition was resuspended in the previous volume of nutrient medium, coloured with vital dye trypan blue, and cell number was counted in the Goryaev chamber (as described above) to determine cytotoxic action of the compounds. The quantitative determination of content of IFN in control and test samples was conducted using the immunoenzyme test system Pro Con IF2 Plus, that is intended for determination of IFN-α, which is produced by TOO “Protein contour”. The solid-phase immunoenzyme method, utilizing horse radish peroxidase as an indicator enzyme, was used to determine the quantity of interferon in the samples. Activity of the bonded peroxidase was measured using an automatic photometer for microplates with a microprocessor at the wavelength of 450 nm.
Based on the obtained results, a calibrating curve was formed, which allows to obtain data expressed in international units (IU) of activity, using the microprocessor of the automatic photometer. The results of the analysis are expressed in IU of activity of IFN per ml in the given induction system, which contains 3×10^4 lymphocyte/ml. Each test and control point was investigated in four parallels.
Controls of immunoenzyme reaction: • 1. Control of DMSO with a nutrient medium. • 2. Control of system components (according to an instruction).
The obtained data were undergone a statistical analysis using t-criterion, and calculation of the confident interval of probability at p=0.05 was carried out. Coincidence of results in the parallel tests was analyzed.

Data set [3] is described as follows: Analgesic activity, tail withdrawal from radiant heat. Type of data set: in vivo, mice. Here is the method:
The time needed to draw back a tail placed under a directed source of radiant heat was estimated in a group of 3 mice. Prolongation of the response time by more than 50% after intraperitoneal dosing a substance (30 mg/kg) indicated analgesic activity. Morphine sulfate (2 mg/kg) was utilized as a reference agent.

Data set [4] relates to C.trachomatis D323. The experiment in a line: Action on Chlamydia trachomatis in cell culture. Type of data set: cell-based. The conditions noted are these: 100 mg/l. As for the experimental part: The antimicrobial activity of the claimed compounds was studied relative to C.trachomatis […], which is a standard strain from the collection of the chair of microbiology of St. Petersburg State Pavlov Medical University. […] Cell cultures McCoy and L929 obtained from the Institute of Cytology of RAS were used in this work. Cells were grown in flasks made of neutral glass in the medium RPMI-1640 with the addition of 10% of fetal calf serum. The test was performed in glass (non-toxic) flat-bottom flasks with cover glasses. The cells were introduced into the medium in the final concentration of […]. […] Simultaneously, tested compounds in a final concentration of 100 mg/l were added to the cells. The sample was centrifuged at 2400 G during 60 minutes at room temperature and incubated at 37° C. for 2 hours. […] The samples were doubled using the medium without cycloheximide so as to exclude its effect on the investigated compounds. The samples were incubated in a CO2-incubator for 48 hours. […] The effect of the action of substance was determined by analysis of the monolayer state and number of cells with CPI when compared with the control (cell culture infected with C.trachomatis […]); in doing so, the number of unchanged cells, that were counted in 100 visual fields obtained using the special net of the microscope eyepiece, was taken into consideration. […] Control of cell culture: morphology of cells and state of monolayer correspond to the given type of the cells; control of chlamydia growth in the cell culture: presence of CPI in the monolayer; control of action of standard antimicrobial agent: reduction of number of CPI in the monolayer as compared to the previous control; control of toxicity of the claimed compounds: toxicity is absent; control of action of solvents: toxic action on cells is absent.

Data set [5] relates to Human's platelet aggregation. Nature of the data set: Antiaggregational properties, ADP-induced platelet aggregation. Format: cell-based. As to conditions: 100 μg/ml, ADP […], platelet-enriched human plasma. An excerpt: Human's platelet aggregation was investigated in plasma of healthy 50±3 years donors that was enriched by thrombocytes, by means of aggregometer FRM-1. […] Magnitude of a maximum non-reversible platelet aggregation in the control samples (solvent) was adopted as 100%, and that in tested samples was counted as the percentage compared to the control.

Data set [6] can be described thus: Determination of maximal tolerable dose. Type of data set: in vivo. The conditions noted are these: oral administration, mice, observed 72 hours; 300 was the maximally utilized one. Here is the method: Tested substance was introduced perorally (in dose of 300 mg/kg) through a gastric tube or intraperitoneally (in dose of 100 mg/kg) to no-breed white mice with mass 18-20 g (each tested group consisted of 3 males and 3 females). Then the mouse state was observed during 72 hours. Absence of symptoms characteristic of toxic effects, or absence of animal death during the given time allows to make a conclusion that the toxicity of the test substance is low. If acute toxicity effects are observed, the dose is reduced to find maximal tolerable dose.

Data set [7] can be described thus: Antioxidant action, riboflavine chemiluminescence. As to conditions: solvent water, phosphate buffer pH 9.1. Format: biochemical. An excerpt: To assess a general antioxidant activity the method of riboflavine chemiluminescence was used. The test substance was introduced into a system consisted of phosphate buffer (pH 9.1), solution of riboflavine, and solution of bivalent iron sulfate. Chemiluminescence was initiated by 0.1% solution of hydrogen peroxide and registered by means of luminometer. […] Ascorbic acid was used as a reference agent.

Data set [8] has as its system Herpes virus of the type I (HSV-I/Leningrad/248/88). Nature of the data set: Effect on Herpes virus, cytopathogenic action on Vero cells. Type of data set: cell-based, Herpes Simplex virus. The conditions noted are these: compound 100 μg/ml; for Quantity of the unchanged cells (number of cells in 100 visual fields): Vero cells, 36 hours, cell control 10000; for percentage of protection of cells from virus: compared to the control of cell culture.

A short description of data set [9]: Hypoglycemic activity after glucose load. Format: in vivo, mice. As to conditions: 100 mg/kg perorally, glucose 1000 mg/kg s.c. Here is the method:
Test substance (100 mg/kg) was perorally administrated to fasted mice, and, immediately after that, solution of glucose (1000 mg/kg) was administrated subcutaneously. Glucose content in blood was determined in a hour by the orthotoluidine method. Reducing of glucose level by more than 20% relative to control animals indicated hypoglycemic properties. Glibenclamide (I mg/kg) was utilized as a reference agent.

Data set [10] can be described thus: Antiulcerous action, water immersion stress with immobilization. Format: in vivo, rats. As to conditions: 20 mg/kg perorally. Here is the method:
Antiulcerous activity of substances was tested on a model of experimental water immersion stress with immobilization. […] After that, gastric mucous membrane was investigated, number and sizes of ulcers were counted, ulceration index was determined (an average sum of ulcer lengths per one animal in a group).

Data set [11] concerns cholesterol synthesis by human's fibroblasts. The experiment in a line: Inhibition of cholesterol synthesis in human's fibroblasts. Type of data set: cell-based. The conditions noted are these: 400 ng/ml, [2-14C] acetate incorporation, 4 hours. Here is the method:
Influence of the substance (400 ng/ml) on cholesterol synthesis by human's fibroblasts was investigated. […] The spots corresponding to cholesterol were removed from a plate to a vial and then were coated with scintillation liquid; after that radioactivity was measured expressed as pulse/min/mg of cell protein. Lovastatin taken in the same concentration as the tested substance was utilized as a reference agent.

Consider `CN1CCc2cccc3c2[C@H]1Cc1ccc(O)c(O)c1-3` [Apomorphine, reference compound], for which, in data set [1], the “Number of points (psychostimulation)” value is 19.
As to `Cc1ccccc1N1C(=O)C(=NO)C(=O)NC1=S` [XLII], the “Content of IFN in induction mixture after 24-hour incubation” value (“Content of IFN in induction mixture” for short) is 28.0 ± 1.5 IU/3 × 10^4 lymph./ml in [2] (substance 1 mg/l), 45 ± 1.2 IU/3 × 10^4 lymph./ml in data set [2] (substance 10 mg/l) and 97.5 ± 1.8 IU/3 × 10^4 lymph./ml in data set [2] (substance 100 mg/l). The “Latent period of response, before dosing” value in [3] (before intraperitoneal 30 mg/kg) is reported as 7.8. In addition, the “Latent period of response, 30 minutes after dosing” value in data set [3] (intraperitoneal 30 mg/kg) came to 11.3. In addition, the “percentage of cell protection from infection” value in data set [4] is listed as “(60%)”. The “Number of unchanged cells” value in [4] (48 hours, counted in 100 visual fields, cell control 8.000, infected cells 6.000) turned out to be 7.200. Besides, in [5], the “% of inhibition of platelet aggregation” value came out at 35.8 ± 3.2%. In addition, the “Maximal tolerable dose, concentration of test substances” value in data set [6] is given as 300 mg/kg. Also, the “IC50, suppressing chemiluminescence by 50%” value in data set [7] amounted to 9.99 µg/mL (≈ 37.9 µM). Moreover, the “Quantity of the unchanged cells (number of cells in 100 visual fields)” value in [8] stood at 5000. In addition, in data set [8], the “percentage of protection of cells from virus” value was “(50%)”. Besides, the “Number of points (psychostimulation)” value in [1] came to 15.
`O=C1NC(=O)N(c2cccc(C(F)(F)F)c2)C(=O)C1=NO` [XXXII]: in [2] (substance 1 mg/l), the “Content of IFN in induction mixture” value stood at 12.5 ± 1.0 IU/3 × 10^4 lymph./ml. Besides, in [2] (substance 10 mg/l), the “Content of IFN in induction mixture” value was 77.5 ± 1.5 IU/3 × 10^4 lymph./ml. Moreover, the “Content of IFN in induction mixture” value in data set [2] (substance 100 mg/l) turned out to be 126.5 ± 1.6 IU/3 × 10^4 lymph./ml. Moreover, the “% of inhibition of platelet aggregation” value in [5] is listed as 64.3 ± 6.2%. Further, the “Maximal tolerable dose, concentration of test substances” value in data set [6] was found to be 300 mg/kg. The “IC50, suppressing chemiluminescence by 50%” value in data set [7] is 6.40 µg/mL (≈ 21.2 µM). Further, in data set [9], the “% change of glucose relative to glucose control” value is recorded as −14%. For the same molecule, the Glucose in blood in data set [9] (after one hour, glucose control 8.26 ± 0.50) stood at 7.10 ± 0.28 mmol/L. In addition, the “% of animals with ulcers” value in data set [10] (rats, 4 hours stress, control 100) worked out at 100%. Besides, in data set [10] (versus control), the “% of reducing number of ulcers” value was −52% and the “% of reducing ulceration index” value is −64%. In data set [10] (control 8.3 ± 2.5), this molecule returned a Number of lesions of 4.0 ± 1.3. The same molecule had a ulceration index in [10] (control 10.5 ± 5.7) of 3.8 ± 1.5. In data set [8], the “Quantity of the unchanged cells (number of cells in 100 visual fields)” value came out at 5000 and the “percentage of protection of cells from virus” value was “(50%)”. Also, the “% of inhibition of cholesterol synthesis” value in data set [11] worked out at 23.5%.
